In paper PMC6738068 (British Journal of Cancer, 2019):
“And” between values parts separate entries of the source, which are not always exact repeats. Equal values may be shown once. Read-outs that look alike come from different tables or passages of the source.

What was measured:
[1] = tested on: rodents; design: method as in printed; conditions: toxicology studies, ref not given; cited from earlier work
[2] = tested on: TrkA; design: method as in printed; conditions: preclinical, ref not given; cited from earlier work
[3] = tested on: patient-derived xenograft (PDX) models across multiple tumour types; conditions: preclinical, including PDX models; cited from earlier work
[4] = tested on: FGFR1; design: method as in printed; conditions: preclinical, ref not given; cited from earlier work
[5] = tested on: PLK3; design: method as in printed; conditions: preclinical, ref not given; cited from earlier work
[6] = tested on: advanced solid tumours; test: Phase 1 efficacy assessment (RECIST v1.1); type: in vivo, human
Protocol: Diagnostic imaging response assessments (computed tomography or magnetic resonance imaging) were performed at baseline and at the end of every two cycles or as clinically indicated. All patients who had at least one post-baseline radiographic assessment of target, non-target, and new lesions constituted the efficacy-evaluable population. Patients were evaluated for complete response (CR), partial response (PR), stable disease (SD) ≥6 months, or progressive disease as determined by RECIST v1.1.[17] Objective response rate (ORR = CR + PR) and clinical benefit rate (CBR = CR + PR + SD ≥ 6 months) were evaluated. Data cut-off for the efficacy-evaluable population was January 21, 2019.

[7] = Plasma pharmacokinetics in phase 1 patients; type: in vivo, human
Protocol: In the expansion cohort, blood samples were collected on Day 1 for Cycle 0 and Day 28 of Cycle 1. Additional samples were drawn prior to dosing on Day 15 of subsequent cycles.
Samples were analysed in accordance with all applicable United States Federal Drug Administration (FDA) and Organisation for Economic Co-operation and Development (OECD) regulations. […] After evaporation of the extraction solvent, sample extracts were reconstituted and analysed by reversed-phase high-performance liquid chromatography using a Waters Atlantis dC18 column. The mobile phase was nebulised using heated nitrogen in a Z-spray source/interface set to electrospray positive ionisation. The ionised compounds were detected using mass spectrometry. The lower limit of quantification was 20 pg/ml. Samples were analysed at Microconstants, San Diego, CA.

[8] = tested on: TrkB; design: method as in printed; conditions: preclinical, ref not given; cited from earlier work
[9] = tested on: Ros; design: method as in printed; conditions: preclinical, ref not given; cited from earlier work
[10] = tested on: BSEP; design: method as in printed; conditions: preclinical testing, ref not given; cited from earlier work
[11] = tested on: OCT2; design: method as in printed; conditions: preclinical testing, ref not given; cited from earlier work
[12] = efficacy-evaluable population (n = 49)
[13] = patient with AKT1 E17K mutant endometrioid endometrial carcinoma
[14] = patient with MSS endometrial carcinoma

SMILES: COc1ccc2c(c1)[C@]1(C[C@H]1c1ccc3c(/C=C/c4ccc(CN5C[C@@H](C)O[C@@H](C)C5)cc4)n[nH]c3c1)C(=O)N2 [CFI-400945]
- primary toxicities [1]: haematopoietic effects (myeloid suppression, bone marrow hypocellularity)
- IC50 [2]: < 100 nM
- in vivo antitumour activity [3]: robust in vivo antitumour activity
- IC50 [4]: < 100 nM
- IC50 [5]: > 50000 nM
- Progressive disease as best response ([6]; 35/49 patients): 71%
- patients with SD ≥6 months ([6]; RECIST v1.1): two and 2/13
- partial responses (PR) ([6]; adenoid cystic carcinoma, 48 mg): One PR
- ORR ([6]; efficacy-evaluable cohort, 1/49): 2%
- CBR ([6]; efficacy-evaluable cohort, 3/49): 6%
- complete responses (CR) [6, 12]: No CRs
- duration on study, range [6, 12]: 0.1–40.7 months
- median duration on study [6, 12]: 1.9 months
- median progression-free survival [6, 12]: 3.2 months
- patients with SD as best response [6, 12]: 13 patients
- progression-free survival, 95% confidence interval [6, 12]: 1.6–4.9 months
- lowest dose with evidence of antitumour activity ([6]; in vivo): 48 mg
- target lesion reduction [6, 13]: −19%
- time on study with SD [6, 13]: 6 cycles
- time on study ([6]; patient with KRAS-mutant, MSS colorectal cancer, 48 mg): 12 cycles
- duration of SD [6, 14]: 8 cycles
- reduction in target lesions [6, 14]: 3.7%
- duration of PR / time on trial, ongoing at data cut-off ([6]; patient with adenoid cystic carcinoma, 48 mg): 45 cycles
- dose proportionality of exposure ([7]; 3-96 mg): generally dose proportional
- exposure at Day 28 higher than exposure at Day 1, average ([7]; across all dose levels): 37%
- AUC(0-t) ([7]; human, plasma, oral, 64 mg, Day 1, read-out: AUC0–24 h): 428 ng·h/mL
- Cmax ([7]; human, plasma, oral, 64 mg, Day 1, read-out: average Cmax): 37 ng/mL
- AUC(0-t) ([7]; human, plasma, oral, 64 mg, after 28 days of dosing, read-out: AUC0–24 h): 564 ng·h/mL
- Cmax ([7]; human, plasma, oral, 64 mg, after 28 days of dosing, read-out: average Cmax): 44 ng/mL
- AUC(0-t) ([7]; human, plasma, oral, Day 1, read-out: AUC0–24 h values associated with grade 3/4 neutropenia): > 400 ng·h/mL
- Cmax ([7]; human, plasma, oral, Day 1, read-out: Cmax values associated with grade 3/4 neutropenia): ≥ 38 ng/mL
- half-life ([7]; human, plasma, oral, 64 mg, Day 1, read-out: half-life (t1/2) (converted)): 9 h
- time to maximum plasma concentration (Cmax) after dosing ([7]; oral, fasting state): 2 to 4 h
- IC50 [8]: < 100 nM
- IC50 [9]: < 100 nM
- inhibition of BSEP [10]: inhibitor
- inhibition of OCT2 [11]: inhibitor
